Measurements: patent US11324798B2, “Materials and methods for treatment of inflammation” (CYTOGEL PHARMA, LLC, priority 2010, dated 2022)
Several values for one entry are separate records, joined by “and”; a condition that tells them apart may be missing. Equal values may be shown once. Entries after “also recorded” stand apart in the source; their conditions may differ.

Experiments:
[1] = Survival of anaesthetised mice after i.v. CYT-1010 injection; type: in vivo
Protocol: In the first series of the in vivo experiments of mice, ketamine (100 mg/kg, i.p.) and xylazine (10 mg/kg, i.m.) were used for anesthesia according to the conventional protocol.

[2] = Appearance of CYT-1010 preparations in 20% HPCD; type: physicochemical
Protocol: (§1) For the in vivo rat and mouse experiments, 5.5 ml of the 1 mg/ml stock solution of CYT-1010 was prepared freshly every experimental day with 20% HPCD dissolved in sterile distilled water. […] The vehicle was 20% HPCD dissolved in sterile distilled water. Further dilutions of the compound for the smaller administered doses were made with this vehicle, the 500 μg/ml and 100 μg/ml concentrations looked opalescent and the lower concentrations were clear. In rats 0.1 ml/100 g, in mice 0.1 ml/10 g volumes were administered i.v. 10 min before the induction of the inflammation.
Stock solution of the 100 μg/ml concentration of CYT-1010 (5.5 ml) was prepared fresh every experimental day with 20% hydroxypropyl-βcyclodextrin (HPCD) dissolved in sterile distilled water, shaken properly and sonicated. The vehicle was 20% HPCD dissolved in sterile distilled water. Further dilutions of the compound for the smaller administered doses were made with this vehicle. The applied concentrations were filtered through a 0.2 μm sterile teflon filter. […] The lower concentrations looked clear immediately. Non-filtered solutions were administered in the same concentrations in the parallel groups for comparison. Three doses of both the filtered and non-filtered CYT-1010 solutions (1, 10 and 100 μg/kg; 0.1 ml/10 g from the 0.1, 1 and 10 μg/ml solutions) were administered i.v. 5 min before the induction of the inflammation. Animals of the control group were treated with the same volume of the HPCD after or without the same filtration procedure.

[3] = tested on: mustard oil-induced acute neurogenic inflammation in the paw skin of the rat; test: 1% mustard oil-induced plasma protein extravasation in the acutely denervated rat hindpaw skin, Evans blue leakage; type: in vivo; conditions: for Evans blue leakage in the rat hindpaw skin / Evans blue leakage in the rat hindpaw skin, Mean: 1% mustard oil; for Evans blue leakage in the rat hindpaw skin: individual paws (rats 1-8, left/right)
Protocol: as §1
Both hindlegs of the rats were acutely denervated (the sciatic and the saphenous nerves were cut 30 min before the induction of inflammation) under deep sodium thiopental (50 mg/kg i.p.) anaesthesia to avoid central reflexes. Acute neurogenic inflammation in the dorsal skin of the hindpaws was evoked by topical application of 1% mustard oil (allylisothiocianante) dissolved in paraffin oil. Mustard oil in concentrations below 5% selectively stimulates TRPA1 ion channels on capsaicin-sensitive peptidergic nerves and induces the release of pro-inflammatory sensory neuropeptides such as CGRP and substance P, which cause vasodilation and plasma protein extravasation in the innervated area.
CYT-1010 (1, 10, 100 and 1000 μg/kg; 0.1 ml/100 g from the 1, 10, 100 and 1000 μg/ml solutions) was administered i.v. 5 min before the induction of the inflammation by mustard oil smearing. Rats in the control group were treated with the same volume of the vehicle, 20% hydroxypropyl-β-cyclodextrin (dissolved in sterile distilled water). The experimental protocol is also illustrated in FIG. 2.
40 male Wistar rats (220-260 g) altogether were divided into 5 experimental groups: Group 1: 8 vehicle-treated controls (n=8); Group 2: 1 μg/kg CYT-1010 (n=8); Group 3: 10 μg/kg CYT-1010 (n=8); Group 4: 100 μg/kg CYT-1010 (n=8); and Group 5: 1000 μg/kg CYT-1010 (n=8).
This study was undertaken in blocks with 10 rats per occasion. The whole set of data was obtained during 4 days, and there were rats of each group every day.
Extravasation of plasma albumin was measured by the Evans blue leakage method. Evans blue (50 mg/kg) was injected i.v. and neurogenic inflammation was induced 10 min later. Rats were killed by exsanguination 20 min after mustard oil application. The skin of the hindpaws was removed and the extravasated dye was extracted with formamide for 72 h at room temperature for photometric determination at 620 nm. The amount of the accumulated Evans blue, which quantitatively correlates with the intensity of plasma extravasation, was expressed as dye/g wet tissue (Szolcsányi and Barthó 1981; Helyes et al., 1997, 2001, 2006). Each of these publications is incorporated herein by reference in its entirety.
Results are expressed as the mean±s.e.m. and analyzed for statistical significance with one-way ANOVA followed by Dunnett post-hoc test when the data were compared to the control group. In the rat in vivo studies, multiple comparisons were also made with Bonferroni's modified t-test to compare the effects of the different doses to each other. *p<0.05 was considered to be significant.

In the case of `NC(Cc1ccc(O)cc1)C(=O)NC1CCCCNC(=O)C(Cc2ccccc2)NC(=O)C(Cc2c[nH]c3ccccc23)NC1=O` [CYT-1010, H-Tyr-c-[D-Lys-Trp-Phe]], the “Mortality after i.v. injection” value ([1]; mice under ketamine (100 mg/kg, i.p.) and xylazine (10 mg/kg, i.m.) anesthesia, presumably respiratory depression) is reported as “all the 10 mice died promptly”, the “Time to death after i.v. injection” value ([1]; mice under ketamine/xylazine anesthesia) is reported as at most 5 min and the “Survival after i.v. injection” value ([1]; mice under urethane (1.2 g/kg i.p.) anaesthesia, one death in the 1 μg/kg dose group) is reported as “all mice survived except one”. For the same molecule, the Appearance of preparation ([2]; 100 μg/ml in 20% HPCD, directly after preparation (Example 4)) was “opalescent”, the Appearance of preparation ([2]; 100 μg/ml in 20% HPCD, on standing at 4° C. (Example 4)) was “cleared up 1 hour later” and the Appearance of preparation ([2]; 500 μg/ml and 100 μg/ml in 20% HPCD) was “opalescent”. The Appearance of preparation ([2]; 1 mg/ml stock in 20% HPCD in sterile distilled water) was “milky white micro-suspension”, the Appearance of preparation ([2]; lower concentrations (below 100 μg/ml) in 20% HPCD) was “clear” and the “Inhibition of mustard oil-induced plasma protein extravasation” value ([3]; 1 μg/kg i.v. (smallest/lowest dose)) was about 60%. For the same molecule, the “Evans blue leakage in the rat hindpaw skin” value ([3]; 1 μg/kg i.v.) was 63.04 μg/g wet skin and 42.27 μg/g wet skin and 3.46 μg/g wet skin and 41.04 μg/g wet skin and 31.69 μg/g wet skin and 46.87 μg/g wet skin and 49.44 μg/g wet skin and 47.62 μg/g wet skin and 77.51 μg/g wet skin and 53.72 μg/g wet skin and 48.91 μg/g wet skin and 59.80 μg/g wet skin and 65.26 μg/g wet skin and 48.52 μg/g wet skin and 44.06 μg/g wet skin and 33.73 μg/g wet skin, the “Evans blue leakage in the rat hindpaw skin, Mean” value (from here on “Evans blue leakage … Mean”) ([3]; 1 μg/kg i.v.) was 47.31 μg/g wet skin and the “Evans blue leakage in the rat hindpaw skin” value ([3]; 10 μg/kg i.v.) was 87.67 μg/g wet skin and 79.89 μg/g wet skin and 77.63 μg/g wet skin and 87.14 μg/g wet skin and 108.49 μg/g wet skin and 73.59 μg/g wet skin and 65.69 μg/g wet skin and 78.05 μg/g wet skin and 94.66 μg/g wet skin and 36.25 μg/g wet skin and 51.07 μg/g wet skin and 41.10 μg/g wet skin and 46.38 μg/g wet skin and 91.18 μg/g wet skin and 61.48 μg/g wet skin and 77.24 μg/g wet skin. The “Evans blue leakage … Mean” value ([3]; 10 μg/kg i.v.) was 72.34 μg/g wet skin, the “Evans blue leakage in the rat hindpaw skin” value ([3]; 100 μg/kg i.v.) was 71.20 μg/g wet skin and 54.84 μg/g wet skin and 83.92 μg/g wet skin and 49.09 μg/g wet skin and 54.86 μg/g wet skin and 59.74 μg/g wet skin and 88.54 μg/g wet skin and 56.89 μg/g wet skin and 75.00 μg/g wet skin and 56.81 μg/g wet skin and 63.41 μg/g wet skin and 68.93 μg/g wet skin and 49.74 μg/g wet skin and 52.19 μg/g wet skin and 49.21 μg/g wet skin and 80.28 μg/g wet skin and the “Evans blue leakage … Mean” value ([3]; 100 μg/kg i.v.) was 63.42 μg/g wet skin. For the same molecule, the “Evans blue leakage in the rat hindpaw skin” value ([3]; 1000 μg/kg i.v.) was 55.85 μg/g wet skin and 66.07 μg/g wet skin and 85.40 μg/g wet skin and 79.34 μg/g wet skin and 154.03 μg/g wet skin and 74.05 μg/g wet skin and 88.00 μg/g wet skin and 62.92 μg/g wet skin and 55.80 μg/g wet skin and 67.62 μg/g wet skin and 57.47 μg/g wet skin and 37.45 μg/g wet skin and 46.10 μg/g wet skin and 76.56 μg/g wet skin and 54.68 μg/g wet skin and 63.41 μg/g wet skin, the “Evans blue leakage … Mean” value ([3]; 1000 μg/kg i.v.) was 70.30 μg/g wet skin and the “Effect on mustard oil-induced plasma protein extravasation in the rat skin” value ([3]; 1, 10, 100 and 1000 μg/kg i.v. pretreatment) was “significant inhibition; also recorded: significant anti-inflammatory effect; also recorded: significantly decreased”.
